Tested on: Vcap cells
Test: Dihydrotestosterone (DHT) mediated XTT cell proliferation assay for screening AR antagonists using Vcap cells
Format: cell-based
Conditions: for IC50: Homo sapiens, 240 h, in the presence of 0.2 nM DHT, XTT readout on Day 10, IC50 curves from 8 concentrations
Description: Dihydrotestosterone (DHT) Mediated XTT Cell Proliferation Assay for Screening AR Antagonists Using Vcap cells
The Vcap cells (4×10^6 cells) were seeded in a T-75 flask containing DMEM with 15% FBS. After 72 hours, the media was removed; the cells were washed once and replaced with phenol red free DMEM containing 8% charcoal stripped serum. Then, the cells were starved in phenol red free DMEM with 8% charcoal stripped serum for 5 days. Following the starvation, the cells were harvested and seeded in 96 well plates (10×10^3 cells per well) in phenol red free DMEM with 8% charcoal stripped serum (Day 0). The cells were allowed to settle and on Day 4 they were treated with different concentrations of the compound (30 μM, 10 μM, 1 μM, 500 nM, 100 nM, 10 nM, 1 nM, 0.1 nM) in the presence of 0.2 nM DHT. DHT alone and a DMSO controls were also included. All treatments were done in triplicate. The drugs were replenished on Day 7 and the cells were allowed to grow for another 72 hours. On Day 10, the experiment was terminated by adding the XTT reagent (2,3-bis[2-methoxy-4-notro-5-sulfophenyl]-2H-tetrazolium-5-caboxyanilide inner salt) dissolved in Phenol red free DMEM without serum. The cells with the XTT reagents were incubated inside the CO2 incubator for 3-4 hours for color development; after which the readings were taken at […] using a spectramax Gemini plate reader.
Data fitting: The IC50 curves for the 8 compound concentrations were calculated with GraphPad Prism software using the sigmoidal dose-response function. (Graphpad Software, San Diego, Calif., USA).

Row | Structure (SMILES) | IC50 [nM] | XTT: only 65% @ high conc (0.2 nM DHT, effect reached at high conc) [%]
1 | CN(C)CCCONC(=O)c1ccc(N2C(=O)N(c3ccc(C#N)c(C(F)(F)F)c3)[C@@H]3CCCC[C@H]32)cc1F (racemic) [Example 25, Trans 4-(3-(4-cyano-3-(trifluoromethyl)phenyl)-2-oxooctahydro-1H-benzo[d]im-idazol-1-yl)-N-(3-(dimethylamino)propoxy)-2-fluorobenzamide (±)] | 42.4 | –
2 | CCN(CC)CCONC(=O)c1ccc(N2C(=O)N(c3ccc(C#N)c(C(F)(F)F)c3)[C@@H]3CCCC[C@H]32)cc1F (racemic) [Example 26, Trans-4-(3-(4-cyano-3-(trifluoromethyl)phenyl)-2-oxooctahydro-1H-benzo[d]im-idazol-1-yl)-N-(2-(diethylamino)ethoxy)-2-fluorobenzamide (±)] | 75.5 | –
3 | N#Cc1ccc(N2C(=O)N(c3ccc(C(=O)NOCC4CCCO4)c(F)c3)[C@@H]3CCCC[C@H]32)cc1C(F)(F)F (mixture of isomers) [Example 27, Trans 4-(3-(4-cyano-3-(trifluoromethyl)phenyl)-2-oxooctahydro-1H-benzo[c]im-idazol-1-yl)-2-fluoro-N-((tetrahydrofuran-2-yl)methoxy)benzamide (±)] | 196 | –
4 | CN1CCC(ONC(=O)c2ccc(N3C(=O)N(c4ccc(C#N)c(C(F)(F)F)c4)[C@@H]4CCCC[C@H]43)cc2F)CC1 (racemic) [Example 28, Trans 4-(3-(4-cyano-3-(trifluoromethyl)phenyl)-2-oxooctahydro-1H-benzo[c]im-idazol-1-yl)-2-fluoro-N-((1-methylpiperidin-4-yl)oxy)benzamide (±)] | 148 | –
5 | N#Cc1ccc(N2C(=O)N(c3ccc(C(N)=O)c(F)c3)[C@@H]3CCCC[C@H]32)cc1C(F)(F)F (racemic) [Example 30, Trans-4-(3-(4-cyano-3-(trifluoromethyl)phenyl)-2-oxooctahydro-1H-benzo[d]im-idazol-1-yl)-2-fluorobenzamide (±)] | 76.3 | –
6 | N#Cc1ccc(N2C(=O)N(c3ccc(C(=O)NCCO)c(F)c3)[C@@H]3CCCC[C@H]32)cc1C(F)(F)F (racemic) [Example 32, Trans 4-(3-(4-cyano-3-(trifluoromethyl)phenyl)-2-oxooctahydro-1H-benzo[d]im-idazol-1-yl)-2-fluoro-N-(2-hydroxyethyl)benzamide (±)] | 377 | –
7 | CNC(=O)c1ccc(N2C(=O)N(c3ccc(C#N)c(C(F)(F)F)c3)[C@@H]3CCCC[C@H]32)cc1C (racemic) [Example 39, Trans-4-(3-(4-cyano-3-(trifluoromethyl)phenyl)-2-oxooctahydro-1H-benzo[d]im-idazol-1-yl)-N,2-dimethylbenzamide (±)] | 399 | –
8 | CNC(=O)c1ccc(N2C(=O)N(c3ccc(C#N)c(C(F)(F)F)c3)[C@@H]3CCCC[C@H]32)s1 (racemic) [Example 40, Trans-5-(3-(4-cyano-3-(trifluoromethyl)phenyl)-2-oxooctahydro-1H-benzo[d]imidazol-1-yl)-N-methylthiophene-2-carboxamide (±)] | > 10000 | –
9 | Cc1c(N2C(=O)N(c3ccc(C#N)c(C(F)(F)F)c3)[C@H]3CCCC[C@@H]32)ccc(C#N)c1Cl (racemic) [Example 42, Trans-2-chloro-4-(3-(4-cyano-3-(trifluoromethyl)phenyl)-2-oxooctahydro-1H-benzo[d]imidazol-1-yl)-3-methylbenzonitrile (±)] | 168 | –
10 | N#Cc1ccc(N2C(=O)N(c3cc(Cl)cc(Cl)c3)[C@@H]3CCCC[C@H]32)cc1C(F)(F)F (racemic) [Example 43, Trans-4-(3-(3,5-dichlorophenyl)-2-oxooctahydro-1H-benzo[d]imidazol-1-yl)-2-(trifluoromethyl)benzonitrile (±)] | 339 | –
11 | N#Cc1ccc(N2C(=O)N(Cc3ccc(Cl)nc3)[C@@H]3CCCC[C@H]32)cc1C(F)(F)F (racemic) [Example 47, Trans-4-(3-((6-chloropyridin-3-yl)methyl)-2-oxooctahydro-1H-benzo[d]imidazol-1-yl)-2-(trifluoromethyl)benzonitrile (±)] | 61.6 | –
12 | N#Cc1ccc(CN2C(=O)N(c3ccc(C#N)c(C(F)(F)F)c3)[C@@H]3CCCC[C@H]32)cn1 (racemic) [Example 48, Trans-5-((-(4-cyano-3-(trifluoromethyl)phenyl)-2-oxooctahydro-1H-benzo[d]im-idazol-1-yl)methyl)picolinonitrile (±)] | > 10000 | –
13 | N#Cc1ccc(N2C(=O)N(Cc3ccc(-n4ccnc4)nc3)[C@@H]3CCCC[C@H]32)cc1C(F)(F)F (racemic) [Example 49, Trans-4-(34(6-(1H-imidazol-1-yl)pyridin-3-yl)methyl)-2-oxooctahydro-1H-benzo[d]imidazol-1-yl)-2-(trifluoromethyl)benzonitrile (±)] | 300 | –
14 | N#Cc1ccc(N2C(=O)N(Cc3ccc(-n4cccn4)nc3)[C@@H]3CCCC[C@H]32)cc1C(F)(F)F (racemic) [Example 50, Trans-4-(3-((6-(1H-pyrazol-1-yl)pyridin-3-yl)methyl)-2-oxooctahydro-1H-benzo[d]imidazol-1-yl)-2-(trifluoromethyl)benzonitrile (±)] | > 10000 | –
15 | N#Cc1ccc(N2C(=O)N(Cc3cc[nH]n3)[C@@H]3CCCC[C@H]32)cc1C(F)(F)F (racemic) [Example 51, Trans-4-(3-((1H-pyrazol-3-yl)methyl)-2-oxooctahydro-1H-benzo[d]imidazol-1-yl)-2-(trifluoromethyl)benzonitrile (±)] | 1080 | –
16 | Cc1n[nH]cc1N1C(=O)N(c2ccc(C#N)c(C(F)(F)F)c2)[C@@H]2CCCC[C@H]21 (racemic) [Example 52, trans-4-(3-(3-methyl-1H-pyrazol-4-yl)-2-oxooctahydro-1H-benzo[d]imidazol-1-yl)-2-(trifluoromethyl)benzonitrile (±)] | > 10000 | –
17 | CNC(=O)c1ccc(N2C(=O)N(c3ccc(C#N)c(C(F)(F)F)c3)[C@@H]3CCCC[C@H]32)cn1 (racemic) [Example 53, Trans-5-(3-(4-cyano-3-(trifluoromethyl)phenyl)-2-oxooctahydro-1H-benzo[d]imidazol-1-yl)-N-methylpicolinamide (±)] | 165 | 65
18 | N#Cc1ccc(N2C(=O)N(c3cccnc3F)[C@@H]3CCCC[C@H]32)cc1C(F)(F)F (racemic) [Example 59, Trans-4-(3-(2-fluoropyridin-3-yl)-2-oxooctahydro-1H-benzo[d]imidazol-1-yl)-2-(trifluoromethyl)benzonitrile (±)] | 1080 | –
19 | N#Cc1ccc(N2C(=O)N(c3ccc(Cl)cc3)[C@@H]3CCCC[C@H]32)cc1C(F)(F)F (racemic) [Example 60, Trans-4-(3-(4-chlorophenyl)-2-oxooctahydro-1H-benzo[d]imidazol-1-yl)-2-(trifluoromethyl)benzonitrile (±)] | 397 | –
20 | N#Cc1ccc(N2C(=O)N(c3ccc(S(N)(=O)=O)c(F)c3)[C@@H]3CCCC[C@H]32)cc1C(F)(F)F (racemic) [Example 67, Trans-4-(3-(4-cyano-3-(trifluoromethyl)phenyl)-2-oxooctahydro-1H-benzo[d]imidazol-1-yl)-2-fluorobenzenesulfonamide (±)] | 1090 | –
21 | CNC(=O)c1ccc(N2C(=O)N(c3ccc(C#N)c(C(F)(F)F)c3)[C@@H]3COCC[C@H]32)cc1F (racemic) [Example 71, Trans-4-{3-[4-Cyano-3-(trifluoromethyl)phenyl]-2-oxo-octahydropyrano[3,4-d]imidazolidin-1-yl}-2-fluoro-N-methylbenzamide (±)] | 656 | –
22 | Cc1cc(N2C(=O)N(c3ccc(C#N)c(C(F)(F)F)c3)[C@@H]3COCC[C@H]32)ccn1 (racemic) [Example 72, Trans-4-(1-(2-methylpyridin-4-yl)-2-oxohexahydropyrano[3,4-d]imidazol-3(2H)-yl)-2-(trifluoromethyl)benzonitrile (±)] | > 10000 | –
23 | CNC(=O)c1ccc(N2C(=O)N(c3ccc(C#N)c(C(F)(F)F)c3)[C@@H]3CCOC[C@H]32)cc1F (racemic) [Example 73, Trans-4-(1-(4-Cyano-3-(trifluoromethyl)phenyl)-2-oxohexahydropyrano[3,4-d]imidazol-3(2H)-yl)-2-fluoro-N-methylbenzamide (±)] | 2550 | –
24 | N#Cc1ccc(N2C(=O)N(c3ccc(C(N)=O)c(F)c3)[C@@H]3CCOC[C@H]32)cc1C(F)(F)F (racemic) [Example 76, Trans-4-(3-(4-cyano-3-(trifluoromethyl)phenyl)-2-oxohexahydropyrano[3,4-d]imidazol-1(6H)-yl)-2-fluorobenzamide (±)] | 2540 | –
25 | Cc1cc(N2C(=O)N(c3ccc(C#N)c(C(F)(F)F)c3)[C@H]3COCC[C@@H]32)ccc1C(N)=O (racemic) [Example 79, Trans-4-(3-(4-cyano-3-(trifluoromethyl)phenyl)-2-oxohexahydropyrano[3,4-c]imidazol-1(6H)-yl)-2-methylbenzamide (±)] | 4330 | –
26 | CNC(=O)c1ccc(N2C(=O)N(c3ccc(C#N)c(C(F)(F)F)c3)[C@@H]3CCCCC[C@H]32)cc1F (racemic) [Example 80, Trans-4-(3-(4-cyano-3-(trifluoromethyl)phenyl)-2-oxooctahydrocyclohepta[d]imidazol-1(2H)-yl)-2-fluoro-N-methylbenzamide (±)] | 254 | –
